Source: publication PMC10820444, “1,2,4-Triazole-Tethered Indolinones as New Cancer-Fighting Small Molecules Targeting VEGFR-2: Synthesis, Biological Evaluations and Molecular Docking” (Pharmaceuticals, 2024)
Read-outs that look alike come from different tables or passages of the source.

How the values were obtained:
HepG2 = test system: HepG2; set-up: method as in doi:10.1016/j.molstruc.2021.131832; details: hepatocellular cell line HepG2; cited from earlier work
VEGFR-2 [1] = target: T1, VEGFR-2 (Homo sapiens, UniProt P35968); set-up: purchased BPS Bioscience 40325; method as in doi:10.1016/j.molstruc.2021.131832; details: cited from earlier work
PANC1 cell line = assay: MTT anti-proliferative assay, PANC1; assay type: cell-based, human; details: for IC50: MTT, 48 h exposure, mean ± S.D., 3 separate experiments
Protocol: (§1) 1. Anti-proliferative activity against HepG2 and PANC1 cancer cell lines
(§2) American Type Culture Collection (ATCC). Cells lines were maintained as monolayers in Dulbecco’s Modified Eagle’s Medium (DMEM) supplemented with 10% FBS, 2 mM L-glutamine, 100 U/ml penicillin and 100µg/ml streptomycin sulfate. Cells were sub-cultured with trypsine /EDTA solution, counted with haemocytometer and plated onto 96-well plates (5000 cells/well) and left overnight to form a semi-confluent monolayer. Cell monolayers were treated in quadrates with vehicle (DMSO, 0.1% v/v), and test samples […]
end of exposure, MTT solution in PBS (5 mg/ml) was then added to all well including no cell blank and left to incubate for 90 min. The formation of formazan crystals were visually confirmed using phase contract microscopy. DMSO (100 µl/well) was added to dissolve the formazan crystals with shaking for 10 min after which the absorbance was read at 590 nm against no cell blanks on a FLuo Star Optima microplate reader (BMG technologies, Germany). Cell proliferation was calculated comparing the OD values of the DMSO control wells and those of the samples represented as % proliferation to the control. Dose-response experiment was performed on samples producing > or =50% loss of cell […]
(§3) vehicle control) were calculated using non-linear regression curve fitting of the dose response plots on GraphPad Prism V.6.0 software.

HepG2 cell line = assay: MTT anti-proliferative assay, HepG2; assay type: cell-based, human; details: mean ± S.D., 3 separate experiments
Protocol: as §1, §2
end of exposure, MTT solution in PBS (5 mg/ml) was then added to all well including no cell blank and left to incubate for 90 min. The formation of formazan crystals were visually confirmed using phase contract microscopy. DMSO (100 µl/well) was added to dissolve the formazan crystals with shaking for 10 min after which the absorbance was read at 590 nm against no cell blanks on a FLuo Star Optima microplate reader (BMG technologies, Germany). Cell proliferation was calculated comparing the OD values of the DMSO control wells and those of the samples represented as % proliferation to the control. Dose-response experiment was performed on samples producing > or =50% loss of cell proliferation using five serial 2-fold dilutions (50, 25, 12.5, 6.25 and 3.125 µM) of the […]
as §3

[2] = Cytotoxicity against non-tumorigenic Vero cell line; assay type: cell-based; details: African green monkey, Vero cells (non-tumorigenic), read-out: IC50 Vero (cytotoxic activity)
VEGFR-2 [3] = target: T1, VEGFR-2; assay: VEGFR-2 Kinase Assay Kit (BPS Bioscience)
Protocol: (§4) In brief, the master mixture was produced (25 μL per well) and poured into
(§5) each well. Each well received 5 μL of inhibitor solution designated as "Test Inhibitor". The "Positive Control" and "Blank" groups received 5 μL of the same solution without the
(§6) inhibitor (Inhibitor buffer). In order to prepare 3 mL of kinase buffer, 600 μL of kinase
(§7) buffer were combined with 2400 μL of water. The blank wells received 20 μL of kinase
(§8) buffer. The amount of VEGFR-2 required for the test was measured and the enzyme was
(§9) diluted to 1 ng/ μL with kinase buffer. 20 μL of diluted VEGFR-2 enzymes was added to
(§10) the wells designated as "Test Inhibitor Control” and “Positive Control” to start the reaction
(§11) and the mixtures were incubated at 30 °C for 45 minutes. After the 45 minutes, each well received 50 μL of KinaseGlo Max reagent and the plate was incubated at room temperature
(§12) for 15 minutes. The luminescence was measured with a microplate reader.

VEGFR-2 [4] = target: T1, VEGFR-2; assay: biochemical
Protocol: as §4, §5, §6, §7, §8, §9, §10, §11, §12

VEGFR-2 [5] = target: T1, VEGFR-2; set-up: purchased BPS Bioscience 40325; method as in PMID 35217379; details: cited from earlier work
Vero cell line = assay: Cytotoxicity against non-tumorigenic Vero cell line; assay type: cell-based; details: read-out: IC50 Vero (cytotoxic activity)
[6] = Homo sapiens, HepG2, 48 h exposure

T1 sequence (P35968 20-1356): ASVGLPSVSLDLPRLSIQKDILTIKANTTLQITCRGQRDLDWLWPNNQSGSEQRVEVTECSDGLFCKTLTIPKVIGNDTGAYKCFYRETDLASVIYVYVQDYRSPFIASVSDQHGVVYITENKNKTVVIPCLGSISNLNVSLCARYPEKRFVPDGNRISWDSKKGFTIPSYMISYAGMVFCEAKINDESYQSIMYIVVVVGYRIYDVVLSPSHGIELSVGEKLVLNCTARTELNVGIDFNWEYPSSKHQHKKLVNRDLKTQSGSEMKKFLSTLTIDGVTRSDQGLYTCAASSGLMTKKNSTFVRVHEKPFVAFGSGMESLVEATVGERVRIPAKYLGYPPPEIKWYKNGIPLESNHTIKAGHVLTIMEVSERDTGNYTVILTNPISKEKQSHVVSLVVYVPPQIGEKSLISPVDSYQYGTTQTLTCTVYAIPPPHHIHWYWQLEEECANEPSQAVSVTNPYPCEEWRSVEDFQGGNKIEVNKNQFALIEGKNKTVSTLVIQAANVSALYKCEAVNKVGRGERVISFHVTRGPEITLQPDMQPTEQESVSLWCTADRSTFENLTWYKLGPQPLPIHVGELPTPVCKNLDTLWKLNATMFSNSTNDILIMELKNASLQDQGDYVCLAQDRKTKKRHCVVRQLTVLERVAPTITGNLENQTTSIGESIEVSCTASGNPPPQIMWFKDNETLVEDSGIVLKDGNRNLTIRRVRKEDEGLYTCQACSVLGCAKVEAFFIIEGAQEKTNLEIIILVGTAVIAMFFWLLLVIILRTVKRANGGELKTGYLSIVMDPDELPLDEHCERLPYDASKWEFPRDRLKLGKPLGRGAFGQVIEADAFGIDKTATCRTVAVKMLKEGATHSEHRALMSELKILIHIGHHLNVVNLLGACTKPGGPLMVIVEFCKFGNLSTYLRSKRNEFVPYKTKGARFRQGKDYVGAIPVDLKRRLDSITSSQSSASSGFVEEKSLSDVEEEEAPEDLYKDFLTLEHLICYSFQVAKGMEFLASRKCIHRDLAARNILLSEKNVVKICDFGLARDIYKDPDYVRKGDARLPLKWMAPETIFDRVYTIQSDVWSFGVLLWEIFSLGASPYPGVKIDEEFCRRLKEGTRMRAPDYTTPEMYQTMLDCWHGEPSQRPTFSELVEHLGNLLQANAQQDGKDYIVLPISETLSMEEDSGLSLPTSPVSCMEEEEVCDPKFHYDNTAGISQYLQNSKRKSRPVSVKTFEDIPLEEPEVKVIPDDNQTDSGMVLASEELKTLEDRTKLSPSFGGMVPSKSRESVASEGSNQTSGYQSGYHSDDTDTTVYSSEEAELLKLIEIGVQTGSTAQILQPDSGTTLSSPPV

SMILES | IC50 (PANC1 cell line; Homo sapiens, PANC-1) | IC50 (HepG2 cell line; [6]) | also measured
CCOC(=O)/C(=N\Nc1ccc(Cl)cc1)Sc1nnc(C(F)(F)F)n1/N=C/c1ccc(OC)cc1 [II] |  |  | IC50 (HepG2): 10000 nM; IC50 (VEGFR-2 [1]): 74 nM
CC(=O)Nc1ccc(-c2nc(C(=O)NN=C3C(=O)N(C)c4ccccc43)nn2-c2ccc(F)cc2)cc1 [14a, N-{4-[1-(4-Fluorophenyl)-3-{N′-[1-methyl-2-oxo-2,3-dihydro-1H-indol-3-ylidene]hydrazinecarbonyl}-1H-1,2,4-triazol-5-yl]phenyl}acetamide] | 4050 ± 100 nM | 1630 ± 20 nM | 
CC(=O)Nc1ccc(-c2nc(C(=O)NN=C3C(=O)N(C)c4ccccc43)nn2-c2ccc(Cl)cc2)cc1 [14c, N-{4-[1-(4-Chlorophenyl)-3-{N′-[1-methyl-2-oxo-2,3-dihydro-1H-indol-3-ylidene]hydrazinecarbonyl}-1H-1,2,4-triazol-5-yl]phenyl}acetamide] | 200 nM | 580 ± 10 nM | IC50 [2]: 7920 ± 480 nM
CC(=O)Nc1ccc(-c2nc(C(=O)NN=C3C(=O)Nc4ccc(F)cc43)nn2-c2ccc(F)cc2)cc1 [11b, N-[4-(3-{N′-[5-Fluoro-2-oxo-2,3-dihydro-1H-indol-3-ylidene]hydrazinecarbonyl}-1-(4-fluorophenyl)-1H-1,2,4-triazol-5-yl)phenyl]acetamide] | 1740 ± 20 nM | 1170 ± 30 nM | 
CC(=O)Nc1ccc(-c2nc(C(=O)NN=C3C(=O)Nc4ccccc43)nn2-c2ccc(Cl)cc2)cc1 [11g, N-{4-[1-(4-Chlorophenyl)-3-{N′-[2-oxo-2,3-dihydro-1H-indol-3-ylidene]hydrazinecarbonyl}-1H-1,2,4-triazol-5-yl]phenyl}acetamide] | 770 ± 20 nM | 710 ± 10 nM | IC50 [2]: 10600 ± 710 nM
COc1ccc2c(c1)C(=NNC(=O)c1nc(-c3ccc(NC(C)=O)cc3)n(-c3ccc(Cl)cc3)n1)C(=O)N2 [11k, N-{4-[1-(4-Chlorophenyl)-3-{N′-[5-methoxy-2-oxo-2,3-dihydro-1H-indol-3-ylidene]hydrazinecarbonyl}-1H-1,2,4-triazol-5-yl]phenyl}acetamide] | 1780 ± 40 nM | 730 ± 10 nM | times increase of VEGFR-2 activity compared to 11g (VEGFR-2 [3]; versus unsubstituted indolin-2-one 11g): approximately 3 times; IC50 [2]: 13200 ± 1090 nM; IC50 (VEGFR-2 [4]): 41.3 ± 0.31 nM
CC(=O)Nc1ccc(-c2nc(C(=O)NN=C3C(=O)Nc4ccc([N+](=O)[O-])cc43)nn2-c2ccc(Cl)cc2)cc1 [11l, N-{4-[1-(4-Chlorophenyl)-3-{N′-[5-nitro-2-oxo-2,3-dihydro-1H-indol-3-ylidene]hydrazinecarbonyl}-1H-1,2,4-triazol-5-yl]phenyl}acetamide] | 170 ± 10 nM | 1730 ± 60 nM | 
CC(=O)Nc1ccc(-c2nc(C(=O)NN=C3C(=O)N(Cc4ccccc4)c4ccc(Br)cc43)nn2-c2ccc(Cl)cc2)cc1 [14d, N-[4-(3-{N′-[1-Benzyl-5-bromo-2-oxo-2,3-dihydro-1H-indol-3-ylidene]hydrazinecarbonyl}-1-(4-chlorophenyl)-1H-1,2,4-triazol-5-yl)phenyl]acetamide] | 420 ± 10 nM | 920 ± 20 nM | 
CC(=O)Nc1ccc(-c2nc(C(=O)NN=C3C(=O)Nc4ccc(Cl)cc43)nn2-c2ccc(F)cc2)cc1 [11c, N-[4-(3-{N′-[5-Chloro-2-oxo-2,3-dihydro-1H-indol-3-ylidene]hydrazinecarbonyl}-1-(4-fluorophenyl)-1H-1,2,4-triazol-5-yl)phenyl]acetamide] | 980 ± 60 nM | 2210 ± 30 nM | 
Cc1ccc(NC(=O)CSc2nnc(Cn3c(=O)c(C)nc4ccccc43)n2C)cc1 [I] |  |  | IC50 (VEGFR-2 [5]): 60 nM
CC(=O)Nc1ccc(-c2nc(C(=O)NN=C3C(=O)Nc4ccc(Cl)cc43)nn2-c2ccc(Cl)cc2)cc1 [11i, N-[4-(3-{N′-[5-Chloro-2-oxo-2,3-dihydro-1H-indol-3-ylidene]hydrazinecarbonyl}-1-(4-chlorophenyl)-1H-1,2,4-triazol-5-yl)phenyl]acetamide] | 3750 ± 90 nM | 4490 ± 150 nM | 
CC(=O)Nc1ccc(-c2nc(C(=O)NN=C3C(=O)Nc4ccc(Br)cc43)nn2-c2ccc(Cl)cc2)cc1 [11j, N-[4-(3-{N′-[5-Bromo-2-oxo-2,3-dihydro-1H-indol-3-ylidene]hydrazinecarbonyl}-1-(4-chlorophenyl)-1H-1,2,4-triazol-5-yl)phenyl]acetamide] | 1680 ± 60 nM | 1010 ± 20 nM | 
CC(=O)Nc1ccc(-c2nc(C(=O)NN=C3C(=O)Nc4ccccc43)nn2-c2ccc(F)cc2)cc1 [11a, N-{4-[1-(4-Fluorophenyl)-3-{N′-[2-oxo-2,3-dihydro-1H-indol-3-ylidene]hydrazinecarbonyl}-1H-1,2,4-triazol-5-yl]phenyl}acetamide] | 4290 ± 100 nM | 2060 ± 30 nM | 
CC(=O)Nc1ccc(-c2nc(C(=O)NN=C3C(=O)N(Cc4ccccc4)c4ccc(Br)cc43)nn2-c2ccc(F)cc2)cc1 [14b, N-[4-(3-{N′-[1-Benzyl-5-bromo-2-oxo-2,3-dihydro-1H-indol-3-ylidene]hydrazinecarbonyl}-1-(4-fluorophenyl)-1H-1,2,4-triazol-5-yl)phenyl]acetamide] | 760 ± 40 nM | 980 nM | 
CC(=O)Nc1ccc(-c2nc(C(=O)NN=C3C(=O)Nc4ccc(F)cc43)nn2-c2ccc(Cl)cc2)cc1 [11h, N-{4-[1-(4-Chlorophenyl)-3-{N′-[5-fluoro-2-oxo-2,3-dihydro-1H-indol-3-ylidene]hydrazinecarbonyl}-1H-1,2,4-triazol-5-yl]phenyl}acetamide] | 220 ± 10 nM | 1270 ± 40 nM | melting point: > 300 °C; fold improvement of efficacy against PANC1 compared to 11b (PANC1 cell line; versus fluorinated-phenyl counterpart 11b): 8 fold
COc1ccc2c(c1)C(=NNC(=O)c1nc(-c3ccc(NC(C)=O)cc3)n(-c3ccc(F)cc3)n1)C(=O)N2 [11e, N-{4-[1-(4-Fluorophenyl)-3-{N′-[5-methoxy-2-oxo-2,3-dihydro-1H-indol-3-ylidene]hydrazinecarbonyl}-1H-1,2,4-triazol-5-yl]phenyl}acetamide] | 2220 ± 70 nM | 760 ± 20 nM | IC50 (Vero cell line): 11700 ± 930 nM; IC50 [2]: 8350 ± 620 nM; IC50 (VEGFR-2 [4]): 48.4 ± 0.39 nM
CC(=O)Nc1ccc(-c2nc(C(=O)NN=C3C(=O)Nc4ccc([N+](=O)[O-])cc43)nn2-c2ccc(F)cc2)cc1 [11f, N-{4-[1-(4-Fluorophenyl)-3-{N′-[5-nitro-2-oxo-2,3-dihydro-1H-indol-3-ylidene]hydrazinecarbonyl}-1H-1,2,4-triazol-5-yl]phenyl}acetamide] | 230 ± 10 nM | 2410 ± 40 nM | 
COc1cccc2c1C(=O)c1c(O)c3c(c(O)c1C2=O)C[C@@](O)(C(=O)CO)C[C@@H]3O[C@H]1C[C@H](N)[C@H](O)[C@H](C)O1 [Dox., reference compound] |  |  | IC50 (PANC1 cell line): 190 ± 10 nM; IC50 (HepG2 cell line; 48 h exposure): 430 ± 20 nM
CC(=O)Nc1ccc(-c2nc(C(=O)NN=C3C(=O)Nc4ccc(Br)cc43)nn2-c2ccc(F)cc2)cc1 [11d, N-[4-(3-{N′-[5-Bromo-2-oxo-2,3-dihydro-1H-indol-3-ylidene]hydrazinecarbonyl}-1-(4-fluorophenyl)-1H-1,2,4-triazol-5-yl)phenyl]acetamide] | 1160 ± 20 nM | 730 ± 20 nM | fold enhancement of efficacy against VEGFR-2 compared to 11e (VEGFR-2 [3]; 5-Br versus 5-OCH3 (11e)): approximately 3 fold; IC50 (Vero cell line): 8350 ± 620 nM; IC50 [2]: 11700 ± 930 nM; IC50 (VEGFR-2 [4]): 16.3 ± 0.42 nM
